Data on 71 compounds can be found in PubChem BioAssay AID179 (DTP/NCI, 2004).

Usually EC50 stands for the concentration at which the effect is half-maximal. The IC50 is the concentration at which inhibition is half-maximal. Lower therefore signals higher potency.

Several values for one entry are separate records, joined by “and”; a condition that tells them apart may be missing. Equal values may be shown once. Activity calls are given as the source filed them.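 The calls were made as follows: active = compounds giving half or more protection of infected cells from virus-caused growth loss, again on retest; inactive = the rest.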

In the assay the test system is CEM cells HIV-1 protection, formazan growth assay. Nature of the assay: NCI AIDS Antiviral Assay. As to conditions: for IC50: measured here: growth of uninfected CEM cells. In short, it runs like this:
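CEM (human) cells, HIV-1 infected vs uninfected, 5-point dosing, formazan growth read-out. Retest threshold 50% protection.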

On to `N#CCCN(CCC#N)c1ccc(/C=C2\N=C(c3cc([N+](=O)[O-])ccc3Cl)N(NC(=O)CC(=O)Nc3ccccc3Cl)C2=O)cc1`, for which the EC50 is more than 11 µM and the IC50 was more than 11 µM.

Turning to `CCOC(=O)C1(Cc2ccccc2)Cc2cc3c(cc2C1)CCC3`, the EC50 is more than 200 µM and the IC50 worked out at 33.9 µM.

`C(=C1/NC(c2ccccc2)=Nc2ccccc21)/c1ccccc1`: the EC50 is more than 6.76 µM and the 50% inhibitory concentration (IC50) is more than 6.76 µM.

Turning to `O=C(CN1CCOCC1)NC1=Nc2ncccc2C(=O)NN1`, the EC50 is more than 200 µM and the IC50 came to 115 µM.

On to `COc1cccc(CN2CCN(/N=C/c3c4c(O)c5c(O)c(C)c6c(c5c3O)C(=O)C(C)(O/C=C/C(OC)C(C)C(OC(C)=O)C(C)C(O)C(C)C(O)C(C)/C=C/C=C(C)C(=O)N4)O6)CC2)c1` (centres undefined), for which the EC50 is more than 200 µM and the 50% inhibitory concentration (IC50) stood at 6.61 µM.

As to `S=C(SSSSC(=S)N1CCCCC1)N1CCCCC1`, the EC50 was more than 10.5 µM and the IC50 worked out at 2.14 µM.

Regarding `CC(=O)c1cc(S(=O)(=O)c2ccc(O)c(C(C)=O)c2)ccc1O`, the EC50 is more than 200 µM and the 50% inhibitory concentration (IC50) was found to be 42.7 µM.

Regarding `COc1ccc(C(c2ccccc2C(=O)O)c2ccc(OC)c3ccccc23)c2ccccc12`, the EC50 was more than 41.7 µM and the IC50 worked out at 10.7 µM.

Take `COC(=O)C1=CCS(=O)(=O)C1`: the EC50 is more than 1410 µM and the IC50 worked out at 178 µM.

`Oc1cccc2c1NC1=C(CCC/C1=C\c1ccccc1)C2`: the EC50 is more than 9.33 µM and the IC50 was more than 9.33 µM.

Turning to `CC#CCCC1(C)CCCCN(C(=O)OC(C)C)C1OCC` (centres undefined), the EC50 was more than 43.7 µM and the 50% inhibitory concentration (IC50) is more than 43.7 µM.

Consider `COc1ccc(C2CCC(=O)CC2C(=O)O)cc1` (centres undefined), for which the EC50 was more than 417 µM and the IC50 was more than 417 µM.

`O=[N+]([O-])c1ccc(NN=C2CN3CCN(C2)c2ccccc23)c([N+](=O)[O-])c1`: the EC50 was more than 200 µM and the half-inhibitory concentration (IC50) is 162 µM.

Regarding `O=C(Nc1ccc(Cl)cc1)OCC12COCN1COC2`, the EC50 is 204 µM and the IC50 came out at 257 µM.

On to `CSC1(SC)CCCCCCCCCCC1`, for which the EC50 is more than 200 µM and the concentration for half-maximal inhibition (IC50) is 158 µM.

Regarding `C/C(CC(=O)Nc1cccc(Cl)c1C)=N\NC(=O)c1ccncc1`, the EC50 was more than 275 µM and the IC50 turned out to be 129 µM.

On to `O=C1CC2c3[nH]c4ccccc4c3CCN2C2=C1CCCC2` (centres undefined), for which the EC50 is more than 200 µM and the IC50 stood at 10.2 µM.

`CC(=O)CSc1sc(C(C)=O)c(N)c1C#N`: the EC50 was more than 200 µM and the half-maximal inhibitory concentration (IC50) is more than 200 µM.

Regarding `COc1ccc(/C=C(/C(=O)O)c2ccccc2)cc1`, the EC50 was more than 708 µM and the half-maximal inhibitory concentration (IC50) was 288 µM.

Turning to `N#CC1C(=O)NC(=O)C1=O` (centres undefined), the EC50 is more than 1820 µM and the IC50 was more than 1820 µM.

Take `COc1ccc([N+](=O)[O-])c(/C(C#N)=C/c2ccccc2)c1`: the EC50 is more than 200 µM and the IC50 is 12.3 µM.

Consider `NC(=O)c1[nH]cnc1/N=N/SCC(N)C(=O)O` (centres undefined), for which the EC50 was more than 200 µM and the IC50 was found to be 0.794 µM.

In the case of `CCCCCCCCCCCCCCCC=C(c1cc(Br)cc(C(=O)O)c1OC)c1cc(Br)cc(C(=O)O)c1OC`, the EC50 is more than 1070 µM and the half-inhibitory concentration (IC50) turned out to be 24 µM.

For the compound `CC1=C(C#N)C2(C(=O)Nc3ccccc32)C(C#N)=C(C)N1`, the EC50 was more than 162 µM and the IC50 is more than 162 µM.

With `Clc1ccc(C2N3CCCCC3[C@@H]3c4[nH]c5ccccc5c4CCN23)cc1` (some centres undefined), the EC50 was more than 19.1 µM and the IC50 was more than 19.1 µM.

`N#Cc1c(N=C2CCCCC2)c(C(=O)Nc2ccccc2)n2c1CCCC2`: the EC50 is more than 50.1 µM and the IC50 is more than 50.1 µM.

In the case of `CN(C)S(=O)(=O)c1c(N)ncn1C`, the EC50 was more than 1230 µM and the IC50 is more than 1230 µM.

With `Cc1cccc(N(CCC#N)S(=O)(=O)c2ccccc2)c1`, the EC50 was more than 200 µM and the IC50 was determined as 110 µM.

Regarding `COc1ccc(CCn2c(=O)c3ccccc3n(C)c2=O)cc1`, the EC50 was more than 83.2 µM and the 50% inhibitory concentration (IC50) was found to be 32.4 µM.

On to `O=C(O)C1CSCN1` (centres undefined), for which the EC50 was more than 468 µM and the half-inhibitory concentration (IC50) was more than 468 µM.

Consider `CC(=O)OCC(OC(C)=O)C(OC(C)=O)C(OC(C)=O)C(OC(C)=O)C(OC(C)=O)c1nc2ccccc2[nH]1` (centres undefined), for which the EC50 is more than 200 µM and the IC50 is more than 200 µM.

For `CN1C(CC(O)c2ccccc2)CCCC1CC(O)c1ccccc1` (centres undefined), the EC50 is more than 200 µM and the IC50 was more than 200 µM.

As for `N#Cc1c(-c2ccccc2)c(C#N)c(=S)n(C2OC(CO)C(O)C(O)C2O)c1N` (centres undefined), the EC50 is more than 200 µM; the IC50 is 83.2 µM and 64.6 µM.

As for `O/N=C1/C(=C/c2ccc(Br)cc2)CCCC1C(NO)c1ccc(Br)cc1` (centres undefined), the EC50 was more than 20.9 µM and the IC50 was more than 20.9 µM.

In the case of `CCOC(=O)c1nn2c(nc1=O)sc1ccc3ccccc3c12`, the EC50 is more than 69.2 µM and the IC50 is more than 69.2 µM.

Consider `COc1ccc(C(C)c2cc3c(cc2OC)OCO3)cc1` (centres undefined), for which the EC50 is more than 66.1 µM and the 50% inhibitory concentration (IC50) came to 0.427 µM.

Regarding `COC(=O)N1C=CC2ON=C(OC)C2C1c1ccccc1` (centres undefined), the EC50 was more than 46.8 µM and the half-inhibitory concentration (IC50) is more than 46.8 µM.

Consider `CCCCc1c2c(nc3c1CCc1cc4cc5c(nc4nc1-3)-c1nc3c(c(CCCC)c1CC5)CCC/C3=C\c1ccccc1)/C(=C/c1ccccc1)CCC2`, for which the EC50 is more than 1.95 µM and the concentration for half-maximal inhibition (IC50) was more than 1.95 µM.

As for `O=C(Nc1ccc(C(F)(F)F)cc1)NC(F)(F)F`, the EC50 was more than 200 µM and the IC50 was more than 200 µM.

Consider `COC(=O)c1cc(Cl)ccc1NC(=O)c1ccc([N+](=O)[O-])cc1`, for which the outcome was inactive.

Regarding `COc1cccc2c1C(=O)c1c(O)c3c(c(O)c1C2=O)C[C@@](O)(C(=O)CO)C[C@@H]3OC1CC(N2CCOCC2C#N)C(O)C(C)O1` (some centres undefined), the EC50 is more than 15.5 µM and the 50% inhibitory concentration (IC50) amounted to 0.00501 µM.

Take `[O-][N+]1=NC(c2ccccc2)=C1c1ccccc1`: the EC50 is more than 50.1 µM and the IC50 was more than 50.1 µM.

With `CC(=O)OC(Cc1ccc2ccccc2n1)(C(F)(F)F)C(F)(F)F`, the outcome was inactive.

Turning to `CC1Oc2c3c(cc(O)c2C(=O)[C@@H]1C)OC(C)(C)CC3` (some centres undefined), the EC50 is more than 200 µM and the IC50 was 50.1 µM.

With `COC1=CC(=O)c2c(cc3c(c2O)-c2c(OC)cc4cc5c(c(O)c4c2OC(=O)CC(C)(O)C3)C(=O)CC(C)(O)C5)C1=O` (centres undefined), the EC50 is more than 100 µM and the IC50 amounted to 5.37 µM.

For the compound `COc1ccc(C2CC(=O)c3c(O)cc(OC4OC(CO)C(O)C(O)C4OC4OC(C)C(O)C(O)C4O)cc3O2)cc1O` (centres undefined), the EC50 is more than 200 µM and the half-maximal inhibitory concentration (IC50) was more than 200 µM.

With `COC(=O)CC1CC2(C(=O)OC)c3[nH]c4ccccc4c3CCN2C1=O` (centres undefined), the EC50 was more than 224 µM and the half-maximal inhibitory concentration (IC50) is more than 224 µM.

`COC(=O)c1c2c(cc3c1CC1(C3)Cc3cc4c(c(C(C)=O)c3C1)CCC4)C=CC2` (centres undefined): the EC50 is more than 200 µM and the concentration for half-maximal inhibition (IC50) was more than 200 µM.

With `CC1(C)CNC[C@@](C)(OCc2ccccc2)C(=O)[N-]C(C)(C)CNC[C@@](C)(OCc2ccccc2)C(=O)[N-]1.[Ni+2]`, the EC50 was more than 200 µM and the concentration for half-maximal inhibition (IC50) came to 105 µM.

For the compound `CS(=O)(=O)C(CC(S(C)(=O)=O)S(C)(=O)=O)S(C)(=O)=O`, the EC50 was more than 20.4 µM and the IC50 was more than 20.4 µM.

Regarding `Cc1cccc(C[P+](c2ccccc2)(c2ccccc2)c2ccccc2)c1`, the EC50 is more than 200 µM and the half-inhibitory concentration (IC50) was 0.631 µM.

Consider `CCC12C=CCN3CC[C@@]4(c5cc([C@@]6(C(=O)OC)CC7CN(CCc8c6[nH]c6ccccc86)C[C@](O)(CC)C7)c(OC)cc5N(C)[C@H]4[C@]4(OCOC4=O)[C@@H]1O)C32` (some centres undefined), for which the result was inactive.

As for `O=[N+]([O-])c1ccc(C2=CSC3=NCCN23)cc1`, the outcome was inactive.

Regarding `CN(c1ccccc1)S(=O)(=O)c1ccc(Cl)cc1`, the EC50 is more than 200 µM.

In the case of `CC1(C)OC(=O)CC12CCN(Cc1ccccc1)CC2`, the EC50 was more than 200 µM and the 50% inhibitory concentration (IC50) stood at 195 µM.

On to `CC(C)CCC[C@@H](C)C1CCC2[C@@H]3CC=C4C[C@@H](OC(=O)CCC(=O)NCC[N+](C)(C)CCCS(=O)(=O)[O-])CC[C@]4(C)C3CC[C@@]21C` (some centres undefined), for which the outcome was inactive.

`O=S(=O)(Nc1nnc2c3ccccc3cnn12)c1ccc(F)cc1S`: the half-maximal effective concentration (EC50) was 110 µM and the IC50 came to 468 µM.

On to `Cc1ccc(/C=C(\C#N)c2ccccc2)cc1`, for which the EC50 is more than 229 µM and the half-inhibitory concentration (IC50) was more than 229 µM.

As for `COc1nc2sc3c(c2c(=O)n1CCCSSCCCn1c(OC)nc2sc4c(c2c1=O)CCCC4)CCCC3`, the EC50 is more than 100 µM and the 50% inhibitory concentration (IC50) is more than 100 µM.

`CCOC(=O)C(C)(C)Oc1ccc(/C=C/C(=O)c2ccc(Cl)cc2)cc1`: the EC50 was more than 10 µM and the IC50 was more than 10 µM.

For `C1=C\SS/C=C\SS/C=C\SS/C=C\SS/1`, the EC50 was 12.9 µM and the IC50 amounted to 15.1 µM.

With `CCOC(=O)Cc1nn2c(=O)cc(C)nc2s1`, the EC50 was more than 200 µM and the concentration for half-maximal inhibition (IC50) is more than 200 µM.

Turning to `CCCCN1C(=O)c2cccc3cccc(c23)C1=O`, the EC50 is more than 200 µM and the IC50 was 112 µM.

Consider `CC1(C)C2CCC1(C)C(OC(=O)/C=C/C(=O)OC1CC3CCC1(C)C3(C)C)C2` (centres undefined), for which the result was inactive.

As to `COc1ccc(N2CC(=O)N(C(=O)COc3ccc(OCC(=O)N4C(=O)CN(c5ccc(OC)cc5)C4=S)cc3)C2=S)cc1`, the EC50 was more than 200 µM and the concentration for half-maximal inhibition (IC50) was 87.1 µM.

For `Cc1nnc(N)nc1/C=C\c1ccc(Cl)cc1Cl`, the EC50 was more than 200 µM and the IC50 was 50.1 µM.

Turning to `CCOC(=O)NC(=O)c1cn(CCN2CCN(c3ncnc4nc[nH]c34)CC2)c(=O)[nH]c1=O`, the result was inactive.

Regarding `COc1cc(-c2c(C)c(C)nc(OC)c2C#N)cc(OC)c1OC`, the concentration for a half-maximal effect (EC50) is 22.9 µM and the IC50 is more than 100 µM.

In the case of `Cc1[nH]c2[nH]c(=S)nc(NC(N)=S)c2c1Cc1ccccc1`, the EC50 was more than 100 µM and the concentration for half-maximal inhibition (IC50) worked out at 41.7 µM.

For the compound `C/C(C=O)=N\Nc1cc(C)c2ccccc2n1`, the EC50 is more than 200 µM and the IC50 is 9.55 µM.

For the compound `Nc1ccc(SCc2ccc(C(=O)O)cc2[N+](=O)[O-])cc1`, the EC50 is more than 813 µM and the concentration for half-maximal inhibition (IC50) is 339 µM.
